Results on 1 compound are retold here after patent publication US20210145802A1, “THERAPY FOR OPHTHALMOLOGICAL CONDITIONS” (WREN THERAPEUTICS LIMITED, priority 2018, published 2021).

Each structure is given as a SMILES string.

The target of one assay is T1, Aβ42 (Homo sapiens, UniProt P05067).
T1 construct: […]; made in house; host or cells: E. coli BL21 Gold (DE3)
Description: Seeded Aβ42 aggregation kinetics (2% or 50% preformed fibril seeds). In kind it is biochemical. Conditions: 2 μM Aβ42. As for the experimental part:
For the seeded experiments, preformed fibrils were prepared just prior to the experiment. Kinetic experiments were set up as described above for 5 μM Aβ42 samples in 20 mM sodium phosphate buffer, pH 8 with 200 μM EDTA, 0.02% NaN3 and 20 μM ThT. The ThT fluorescence was monitored for 3 hours to verify the formation of fibrils. Samples were then collected from the wells into low-binding tubes. Under the considered conditions (i.e. 5 μM Aβ42), the monomer concentration is negligible at equilibrium. The final concentration of fibrils, in monomer equivalents, was considered equal to the initial concentration of monomer. Fibrils were then added to freshly prepared monomer in order to reach either 2% or 50% final concentration of seeds in the absence or the presence of Netoglitazone.
Inhibitors can interfere with the aggregation process by inhibiting one or more of the individual microscopic steps. We can identify the microscopic events that are inhibited by the chemical compounds by fitting the integrated rate law (Eq. (54) in Cohen et al., J Chem Phys 135, 065106) to the macroscopic aggregation profiles and comparing the fitted set of microscopic rate constants (k+k2 and k+kn in the absence of pre-formed seeds; k+ and k2 in the presence of pre-formed seeds where primary nucleation is bypassed) required to describe the time evolution of the fibril formation in the absence and presence of Netoglitazone. The analysis is analogous to that carried out in Habchi et al., Proc Natl Acad Sci USA; 114(2):E200-E208, 2017 to study the effects of other small molecules on Aβ42 aggregation.

Assay [1] deals with GMC101 (Aβ worms). Description: Automated motility assay, Aβ worms. In kind it is in vivo, C. elegans. The protocol: GMC101 dvIs100[unc-54p::A-beta-1-42::unc-54 3′UTR+mt1-2p::GFP]. mt1-2p::GFP produces constitutive expression of GFP in intestinal cells. unc-54p::A-beta-1-42 expresses full-length human Aβ42 peptide in body wall muscle cells that aggregates in vivo. Shifting L4 or young adult animals from 20° to 24° C. causes paralysis (G. McColl et al., Utility of an improved model of amyloid-beta (Aβ1-42) toxicity in Caenorhabditis elegans for drug screening for Alzheimer's disease. Mol Neurodegener. 7, 57 (2012));
(§1) Briefly, Netoglitazone stocks (5 mM in 100% DMSO) were used at an appropriate concentration to seed 9-cm NGM plates. Plates were then placed in a laminar flow hood at room temperature (22° C.) for up to 4 hours to dry. C. elegans cultures were then transferred onto media seeded with compound as L4 stage or Day 3 for late treatments and incubated at 24° for the whole experiment. Experiments were carried out at different Netoglitazone concentrations ranging from 0.05 to 500 μM in 1% DMSO. As controls, plates seeded only with 1% DMSO were used.
(§2) All C. elegans populations were cultured at 20° C. and developmentally synchronized from a 4 h egg-lay. At 64-72 h post-egg-lay (time zero), individuals were transferred to FUDR plates, and body movements were assessed over the times indicated. At different ages, the animals were washed off the plates with M9 buffer and spread over an OP-50 unseeded 9 cm plate, after which their movements were recorded at 20 fps using a recently developed microscopic procedure (M. Perni et al., Massively parallel C. elegans tracking provides multi-dimensional fingerprints for phenotypic discovery. J. Neurosci. Methods. 306, 57-67 (2018)) for 1 min. Up to 600 animals were counted in each experiment in duplicate unless stated otherwise. […]
In order to screen for the effect of therapeutics in the most robust way, a wide field-of-view nematode-tracking platform (WF-NTP) was used, which enables the simultaneous investigation of multiple phenotypic readouts on large worm populations. […]

Another assay deals with NL5901 (α-syn worms). Description: Automated motility assay, α-syn worms. In kind it is in vivo, C. elegans. The note with it: same concentration range; compared with effect in Aβ worms. The protocol: NL5901 (pkIs2386 [α-synuclein::YFP unc-119(+)]) (“α-syn worms”), in which α-synuclein fused to YFP relocates to inclusions, which are visible as early as day 2 after hatching and increase in number and size during the aging of the animals, up to late adulthood (day 17) (T. J. Van Ham et al., C. elegans model identifies genetic modifiers of α-synuclein inclusion formation during aging. PLoS Genetics. 4 (2008));
Briefly, Netoglitazone stocks (5 mM in 100% DMSO) were used at an appropriate concentration to seed 9-cm NGM plates. Plates were then placed in a laminar flow hood at room temperature (22° C.) for up to 4 hours to dry. […]
as §2

A further assay deals with N2 healthy control worms. Description: Automated motility assay, healthy worms. In kind it is in vivo, C. elegans. The note with it: same concentration range; compared with effect in Aβ worms. As for the experimental part:
N2 C. elegans var. Bristol used as controls (also labelled “healthy”). Generation time is about 3 days. Brood size is about 350, wild type phenotype, sub-cultured in 1973 (S. Brenner, The genetics of Caenorhabditis elegans. Genetics. 77, 71-94 (1974)).
Briefly, Netoglitazone stocks (5 mM in 100% DMSO) were used at an appropriate concentration to seed 9-cm NGM plates. Plates were then placed in a laminar flow hood at room temperature (22° C.) for up to 4 hours to dry. C. elegans cultures were then transferred onto media seeded with compound as L4 stage or Day 3 for late treatments and incubated at 24° for the whole experiment. […]
as §2

Assay [2] relates to GMC101 (Aβ worms). Description: ROS production (ROS-Glo H2O2 assay) in worms. Type of assay: in vivo, C. elegans. Conditions: 5 μM; administered at L4; D5 of adulthood. The protocol: ROS-Glo™ H2O2 cell kit assay was used (Promega, Fitchburg, Wis., USA) and adapted for C. elegans studies. The ROS-Glo™ H2O2 Assay is a bioluminescent assay that measures the level of H2O2, a reactive oxygen species (ROS), directly in cell culture or tissue or in defined enzyme reactions. A derivatized luciferin substrate is incubated with sample and reacts directly with H2O2 to generate a luciferin precursor. Worms treated with 5 μM Netoglitazone in 1% DMSO or 1% DMSO only were washed using M9 buffer out the NGM plates. The buffer was then changed 3 times to remove the excess bacteria. Worm pellets were then divided in three wells and 80 μl of worm pellet (around 200 worms/well) was incubated for 6 h at RT with 20 μl of a ROS Substrate Solution (Promega, Fitchburg, Wis., USA); mild shaking at 300 rpm was used to avoid worm sedimentation; afterwards, worms were incubated for ca. 20 min with 100 μl of the detection solution; luminescence was then measured with a Clariostar (BMG Labtech, Aylesbury, UK).

Assay [3] relates to GMC101 (Aβ worms). Description: Survival rate of Aβ worms. Conditions: administered at D3; D5 of adulthood. Type of assay: in vivo, C. elegans. The protocol: as §1

T1 sequence (P05067 671-713): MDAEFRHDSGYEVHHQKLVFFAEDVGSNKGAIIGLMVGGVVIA

Take `O=C1NC(=O)C(Cc2ccc3cc(OCc4ccccc4F)ccc3c2)S1` (stereo not shown) [Netoglitazone]: the “decrease of rate constant of surface-catalyzed secondary nucleation (k2)” value at Aβ42 (2% seeds, 20-fold excess) is reported as “about 80%”. In addition, the “inhibition of secondary pathways (k2k+) with 2% preformed seeds” value against Aβ42 (2% seeds, range of concentrations) is “concentration-dependent inhibition of secondary pathways”. On Aβ42 (50% seeds, up to 20-fold excess), the “effect on aggregation kinetics with 50% preformed seeds (elongation)” value is on record as “did not affect the aggregation kinetics”. The “mobility of Aβ worms after treatment at L4” value with GMC101 (Aβ worms) [1] (0-10 μM, administered at L4) is recorded as “greatly improves the mobility”. In addition, the “mobility after late administration” value in the assay with GMC101 (Aβ worms) [1] (administered at D3, D5 of adulthood) is given as “increase”. Moreover, the “concentration range of best protective effect on mobility” value in the assay with GMC101 (Aβ worms) [1] (administered at L4, observed at D3 of adulthood) lay in the range of 0.5 to 5 µM. Besides, in the assay on NL5901 (α-syn worms), the “effect on mobility of α-syn worms” value was “negligible”. Also, in the assay with N2 healthy control worms, the “effect on mobility of healthy worms” value was “negligible”. In the assay with GMC101 (Aβ worms) [2], the “levels of ROS production” value is recorded as “significantly decreased the levels of oxidative species”. Also, in the assay with GMC101 (Aβ worms) [3], the “survival rate after late administration” value is “increase”.
